According to patent US6080790A, “Tri-substituted phenyl derivatives and processes for their preparations” (priority 1992, dated 2000):
Where a name gives a salt, the structure may show the parent alone.

Legend:
PDE IV, HL60 cells = experiment: Isolated enzyme, inhibition of PDE IV from HL60 cells; assay type: biochemical; details: 0.1 μM [3H]-cAMP, pH 7.5, 30° C.; "Ki PDEIV HL60 at 1 μM"; read-out: approximate Ki value (PDE IV HL60)
Method: 1. Isolated Enzyme The potency and selectivity of the compounds of the invention was determined using a battery of distinct PDE isoenzymes as follows: iv. PDE IV, HL60 cells. The enzymes were purified to kinetic homogeneity using standard chromatographic techniques. Phosphodiesterase activity was assayed as follows. The reaction was conducted in 150 μl of standard mixture containing (final concentrations): 50 mM TES-NaOH buffer (pH 7.5), 10 mM MgCl2, 0.1 μM [^3 H]-cAMP and vehicle or various concentrations of the test compounds. The reaction was initiated by addition of enzyme and conducted at 30° C. for between 5 to 30 mins. […] An aliquot of the sample was then applied to a column of neutral alumina and the […] eluted with 10 ml 0.1 TES-NaOH buffer (pH8). […] Recovery of [3H]-5'AMP was determined using the [^14 C]-5'AMP and all assays were conducted in the linear range of the reaction.

papillary muscle = details: reference substances, general statement; cited from earlier work
right atrial muscle = details: reference substances, general statement; cited from earlier work
[1] = used in asthma as a bronchodilator; cited from earlier work

Row | Compound | Ki (PDE IV, HL60 cells) [nM] | direct inotropic effect (reference PDE inhibitors) (papillary muscle) | direct chronotropic effect (reference PDE inhibitors) (right atrial muscle) | further results
1 | COc1ccc(-c2cncc3ccccc23)cc1OC1CCCC1 [Example 2, 4-(3-Cyclopentyloxy-4-methoxyphenyl)isoquinoline] | ~180 | – | – | –
2 | COc1ccc(-c2cccnc2)cc1OC1CCCC1 [Example 4, 3-(3-Cyclopentyloxy-4-methoxyphenyl)pyridine hydrochloride] | ~270 | – | – | –
3 | COc1ccc(-c2cccc([N+](=O)[O-])c2)cc1OC1CCCC1 [Example 7, 2-Cyclopentyloxy-4-(3-nitrophenyl)anisole] | ~250 | – | – | –
4 | Cc1[nH]c(=O)c(C#N)cc1-c1ccncc1 [milrinone] | – | positive chronotropic and inotropic effects | positive chronotropic and inotropic effects | –
5 | COc1ccc(C2CNC(=O)C2)cc1OC1CCCC1 (centres unmarked) [rolipram] | – | do not have any direct effects | do not have any direct effects | –
6 | Cn1c(=O)c2[nH]cnc2n(C)c1=O [theophylline] | – | – | – | cardiovascular changes [1]: significant cardiovascular changes such as tachycardia
